Experimental data published in US9944610B2, “Preparation and method for use in the treatment of respiratory diseases” (Universite Laval, priority 2013, dated 2018).

Key:
[1] = ASM-024 capsule stability study, NGI testing of fine particle mass (FPM); assay type: physicochemical; details: eight weeks at 40° C./75% RH
Description: (§1) For method development using the NGI method, size three HPMC capsules were hand filled with forty milligrams of micronized ASM-024. Three capsules were tested according to manufacturer's instructions using the following conditions: • Cup coating agent: 3% PEG400 with 0.1% F68 in acetone • Testing flow rate: 60 LPM • Testing volume: 4 L (4 second actuation) • Device: Miat Monodose Inhaler (standard resistance) • Sample diluent: 70% MeOH: 30% H2O (v/v) • Dilutions • Device—50 ml • Throat—50 ml • Pre-separator—100 ml • Stage 1—MOC—10 ml • Filter—50 ml
A two month study was performed at accelerated conditions with testing at two weeks, four weeks and eight weeks. Hand filled 40 mg capsules were packed in foil pouches with a 10 g desiccant pouch and heat sealed. Hand filled 40 mg capsules were also packed in foil pouches and heat sealed without a desiccant pouch. All heat seals were hand checked to ensure seal integrity. Pouches were placed on stability at 40° C./75% RH. NGI testing of the capsules stored without desiccant were conducted over the eight week study.

LTD4-induced contraction = test: Relaxant effect on LTD4-induced contraction
[2] = Particle size analysis (PSD), Malvern Mastersizer; assay type: physicochemical
Description: A 2 g sample of anhydrous crystalline ASM-024 was taken and fed through the Sturtevant Qualification Micronizer. The mill has a 2 inch chamber, and was operated at 80 psig grinding pressure and 90 psig feed pressure. Milled API was recovered from the exhaust filter sock and physically characterized.
Particle size analysis was performed using a Malvern Mastersizer with a Small Sample Presentation Unit. The dispersant used was ethyl acetate with 2 g of SPAN 85 per liter. Samples were prepared by sonicating 5 mg of sample in 2 ml of dispersant, the sample was then added dropwise to achieve 20% obscuration.
Magnesium stearate was blended with un-milled ASM-024 in two gram lots. Approximately one gram of ASM-024 was weighed into a 28 ml vial. The appropriate mass of magnesium stearate was then weighed on top of the API and the weight completed to two grams with ASM-024. The materials were blended using a Turbula T2F mixer at 101 rpm for ten minutes. The blended material was passed through the Sturtevant Qualification Micronizer and recovered from the filter sock.

[3] = NGI aerosol testing, mass retained in device and capsule; assay type: physicochemical; details: 40 mg capsule fill weight, standard and high resistance Miat Monodose inhalers
Description: as §1
Aerosol performance and stability was assessed. Milled API was hand filled into size 3 HPMC capsules and size 3 gelatin capsules (40 mg capsule fill weight). NGI testing was performed in duplicate using standard resistance and high resistance Miat Monodose inhalers. […] The high resistance device has provided an increased FPM of ASM-024 from both HPMC and gelatin capsules.

[4] = PSD of ASM-024 prior to micronization
[5] = co-milled with 0.2 % w/w magnesium stearate
[6] = co-milled with 0.5 % w/w magnesium stearate
[7] = co-milled with 1.0 % w/w magnesium stearate
[8] = co-milled with 2.0 % w/w magnesium stearate
[9] = milled, 0.0 % magnesium stearate

decrease in FPM ([1]; 40 mg capsules in foil pouches with 10 g desiccant pouch): ~5.7%
decrease in FPM ([1]; 40 mg capsules in foil pouches without desiccant): 10.9%
d10 [2, 4]: 13.92 μm
d50 [2, 4]: 41.67 μm
d90 [2, 4]: 91.89 μm
d10 ([2]; after one pass in jet air mill): 0.78 μm
d50 ([2]; after one pass in jet air mill): 2.10 μm
d90 ([2]; after one pass in jet air mill): 4.70 μm
d10 [2, 5]: 0.89 µm
d50 [2, 5]: 1.74 µm
d90 [2, 5]: 3.33 µm
d10 [2, 6]: 0.89 µm
d50 [2, 6]: 1.86 µm
d90 [2, 6]: 3.94 µm
d10 [2, 7]: 0.9 µm
d50 [2, 7]: 1.7 µm
d90 [2, 7]: 3.17 µm
d10 [2, 8]: 0.91 µm
d50 [2, 8]: 1.69 µm
d90 [2, 8]: 3.11 µm
d10 [2, 9]: 0.97 µm
d50 [2, 9]: 1.95 µm
d90 [2, 9]: 3.8 µm
mass of ASM-024 retained in the device and capsule after NGI testing [3]: less than 20 mg
SMILES: CC[N+]1(CC)CCCN(c2ccccc2)CC1 [ASM-024]
relaxant effect on LTD4-induced contraction (LTD4-induced contraction): no relaxant effect
